From publication PMC12731528, “High‐Affinity Peptide‐Drug Conjugate Ligands for the TRIM24 PHD and Bromodomain” (Chemistry (Weinheim an Der Bergstrasse, Germany), 2025)
Where “and” joins values, the source holds several entries; their conditions need not be identical. Identical values can stand only once. Like-named read-outs stand apart in the source and are kept apart here. Blank lines part the entries; values can stand above or below the molecule they belong to.

Assays:
TRIM33α = tested on: TRIM33α; set-up: method as in PMID 36098557, PMID 26061247; settings: cited from earlier work
TRIM33β = tested on: TRIM33β; set-up: method as in PMID 36098557, PMID 26061247; settings: cited from earlier work
His6-TRIM24 (PHD-BRD) [1] = target: T1, His6-TRIM24 (PHD-BRD) (Homo sapiens, UniProt O15164); assay: AlphaScreen competition assay, displacement of biotinylated H3(1–27)K18Ac (B2); set-up: N825–E1007; made in house; host or cells: Escherichia coli BL21-Gold (DE3), plasmid pNIC28-Bsa4; settings: inhibition of TRIM24-H3K18Ac (B2) binding; mean of triplicate ± SEM
T1 sequence (O15164 825-1007): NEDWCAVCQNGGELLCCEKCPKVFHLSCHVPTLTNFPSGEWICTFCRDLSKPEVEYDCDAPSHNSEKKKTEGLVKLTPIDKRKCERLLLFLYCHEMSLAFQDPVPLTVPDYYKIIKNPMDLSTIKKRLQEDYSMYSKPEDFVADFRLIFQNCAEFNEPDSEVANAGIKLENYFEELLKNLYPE

His6-TRIM24 (PHD-BRD) [2] = target: T1, His6-TRIM24 (PHD-BRD); assay: AlphaScreen competition assay, displacement of biotinylated H3(1–27)K9Me3K18Ac (B3); type: binding; set-up: N825–E1007; made in house; host or cells: Escherichia coli BL21-Gold (DE3), plasmid pNIC28-Bsa4; settings: for IC50: AlphaScreen® IC50 (TRIM24 PHD-BRD), inhibition of TRIM24-H3K9Me3K18Ac (B3) binding, mean of triplicate ± SEM; for AlphaScreen signal at plateau relative to baseline: competitor H3(1–27)K9Me3K18Ac
BT-474 (ER+) = assay: MTT assay, BT-474; type: cell-based, human; settings: ER+ breast cancer cell line, up to 10 μM, 16 h
Protocol: (§1) (ER+) and CAL-51 (triple negative), treated with the indicated compound (10 µM). The data are represented as the mean of means for two biological repeats (n = 2), each consisting of three technical repeats. Error bars indicate the standard error of the mean. […]
(§2) due to issues with procurement at the time of running the assay. […]
(§3) indicated compound (10 µM). Compounds were added after seeding on day 0 only and counting was carried out each day for 6 days. Data are represented as the mean of triplicate data from one biological repeat. Error bars indicate the standard deviation. […]
(§4) supplemented with 10% FBS (Merck Life Sciences U.K. Ltd., F7524). Unless otherwise stated, cells were cultured in a humidified incubator at 37 °C and 5% CO2. Cell lines were passaged by trypsinisation (Trypsin-EDTA solution 1×, Merck Life Sciences U.K. Ltd., T3924), and by diluting the cells into a culture flask at the desired density in complete media. Cell lines were […]
(§5) Cells were seeded and allowed to adhere for 6 h in plastic clear-bottomed 96-well plates in a total volume of 200 μL/well complete medium.

CAL-51 (triple negative) = assay: MTT assay, CAL-51; type: cell-based, human; settings: triple-negative breast cancer cell line, up to 10 μM, 16 h
Protocol: as §1, §2, §3, §4, §5

MCF-7 cells = assay: Proliferation and clonogenic assays, MCF-7; type: cell-based, human; settings: MCF-7, 10 µM
Protocol: as §1, §2, §3
Error bars indicate the standard deviation.
(§6) (1 picture or pasted object on this page, not shown here) […]
as §4, §5

CAL-51 cells = assay: Proliferation and clonogenic assays, CAL-51; type: cell-based, human; settings: CAL-51, 10 µM
Protocol: as §6, §4, §5

TRIM24 (PHD‐BRD) = target: T2, TRIM24 (PHD‐BRD) (Homo sapiens, UniProt O15164); assay: BROMOscan assay, TRIM24; type: binding
T2 sequence (O15164 826-1004 limits assumed): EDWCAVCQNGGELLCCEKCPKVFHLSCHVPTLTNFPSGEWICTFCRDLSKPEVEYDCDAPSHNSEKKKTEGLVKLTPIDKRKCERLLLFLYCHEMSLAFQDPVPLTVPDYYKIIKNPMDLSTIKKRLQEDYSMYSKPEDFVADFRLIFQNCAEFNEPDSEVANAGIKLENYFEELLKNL
Description: The Hill Slope was set to −1.

BRPF1 (BRD) [3] = target: T3, BRPF1 (BRD) (Homo sapiens, UniProt P55201); assay: BROMOscan assay, BRPF1; settings: mean of duplicate data ± 95% confidence interval
T3 sequence (P55201 628-732 limits assumed): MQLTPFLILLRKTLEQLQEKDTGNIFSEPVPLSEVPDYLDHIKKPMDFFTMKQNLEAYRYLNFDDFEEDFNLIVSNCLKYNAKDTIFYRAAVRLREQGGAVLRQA

His6-TRIM24 (PHD-BRD) [4] = target: T1, His6-TRIM24 (PHD-BRD); assay: Surface plasmon resonance (SPR); type: binding; set-up: N825–E1007; made in house; host or cells: Escherichia coli BL21-Gold (DE3), plasmid pNIC28-Bsa4; settings: 15 °C; for Kd: mean of means of triplicate ± SEM
TRIM24 = settings: ref Gechijian et al. 2018; cited from earlier work
BRPF1 = settings: ref Gechijian et al. 2018; cited from earlier work
His6-TRIM24 (PHD-BRD) [5] = target: T1, His6-TRIM24 (PHD-BRD)
His6-TRIM24 (PHD-BRD) [6] = target: His6-TRIM24 (PHD-BRD) (UniProt O15164); assay: other; AlphaScreen, competitor biotinylated H3K9Me3K18Ac (B3)
BRPF1 (BRD) [7] = target: T4, BRPF1 (BRD); settings: Synthetic nine-residue H3(1-9) peptide. Residue 9 (K10 in precursor numbering) is unnatural amino acid 42, a lysine analogue whose side-chain nitrogen is part of an isoindoline ring (parent written as Lys). C-terminal group is not stated in the text. Limits are inferred from H3(1-8) peptide 46 plus amino acid 42. limits by convention from the usual BRPF1 bromodomain structural construct (covers B); modification not given
T4 chain: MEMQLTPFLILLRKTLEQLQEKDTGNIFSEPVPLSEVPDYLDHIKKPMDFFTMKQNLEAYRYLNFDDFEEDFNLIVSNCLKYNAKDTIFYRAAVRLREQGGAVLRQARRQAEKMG

BRPF1 (BRD) [8] = target: T4, BRPF1 (BRD); assay: BROMOscan; settings: Synthetic nine-residue H3(1-9) peptide. Residue 9 (K10 in precursor numbering) is unnatural amino acid 42, a lysine analogue whose side-chain nitrogen is part of an isoindoline ring (parent written as Lys). C-terminal group is not stated in the text. Limits are inferred from H3(1-8) peptide 46 plus amino acid 42. limits by convention from the usual BRPF1 bromodomain structural construct (covers B); modification not given

Molecule: CCCOc1cc(OCCCCN(C)C)cc(Oc2cc3c(cc2NS(=O)(=O)c2ccc(OC)c(OC)c2)n(C)c(=O)n3C)c1 [IACS9571]
- binding to TRIM33α (TRIM33α): does not bind
- binding to TRIM33β (TRIM33β): does not bind

Molecule: CCCOc1cccc(Oc2cc3c(cc2NS(=O)(=O)c2cccc(C(=O)O)c2)n(C)c(=O)n3C)c1 [compound 28]
- IC50 (His6-TRIM24 (PHD-BRD) [1]): 388 ± 46.6 nM
- IC50 (His6-TRIM24 (PHD-BRD) [2]): > 100000 nM
- AlphaScreen signal at plateau relative to baseline (His6-TRIM24 (PHD-BRD) [2]): did not decrease to baseline

Molecule: CCCOc1cccc(Oc2cc3c(cc2NS(=O)(=O)c2cccc(C(=O)NCCOCCOCCNC(C)=O)c2)n(C)c(=O)n3C)c1 [compound 32]
- IC50 (His6-TRIM24 (PHD-BRD) [1]): 105 ± 5.3 nM
- IC50 (His6-TRIM24 (PHD-BRD) [2]): 484 nM
- AlphaScreen signal at plateau relative to baseline (His6-TRIM24 (PHD-BRD) [2]): did not decrease to baseline

Molecule: CCCOc1cccc(Oc2cc3c(cc2NS(=O)(=O)c2cccc(C(=O)NCCOCCOCCOCC(=O)N[C@H](C(=O)N4C[C@H](O)C[C@H]4C(=O)NCc4ccc(-c5scnc5C)cc4)C(C)(C)C)c2)n(C)c(=O)n3C)c1 [dTRIM24]
- Kd (TRIM24): 42 nM
- Kd (BRPF1): 52 nM

Molecule: H3(1-27)K9Me3K18Ac
- IC50 (His6-TRIM24 (PHD-BRD) [6]): 242 nM

Molecule: ARTKQTARK [TRIM24 PHD-binding peptide (56)]
- Kd (BRPF1 (BRD) [7]): > 10000 nM
- Kd (BRPF1 (BRD) [8]): > 10000 nM

Further lines, with some results ahead:

- IC50 (His6-TRIM24 (PHD-BRD) [1]): 71 ± 4.1 nM
- IC50 (His6-TRIM24 (PHD-BRD) [2]): 348 nM
- AlphaScreen signal at plateau relative to baseline (His6-TRIM24 (PHD-BRD) [2]): did not decrease to baseline
Molecule: CCCOc1cccc(Oc2cc3c(cc2NS(=O)(=O)c2cccc(C(=O)NCCOCCOCCOCCNC(C)=O)c2)n(C)c(=O)n3C)c1 [compound 33]
- cytotoxic effects (MTT) (BT-474 (ER+)): did not show cytotoxic effects
- cytotoxic effects (MTT) (CAL-51 (triple negative)): did not show cytotoxic effects
- effect on breast cancer cell growth (MCF-7 cells): neither compound significantly affected
- effect on breast cancer cell growth (CAL-51 cells): neither compound significantly affected

- Kd (TRIM24 (PHD‐BRD); BROMOscan TRIM24 PHD-BRD Kd, mean of duplicate data ± 95% confidence interval): 2 ± 0.98 nM
- Kd (TRIM24 (PHD‐BRD); individual duplicate curves, read-out: BROMOscan TRIM24 Kd, single dose-response curve): 2.5 nM and 1.5 nM
- Kd (BRPF1 (BRD) [3]): 2.15 ± 0.49 nM
- IC50 (His6-TRIM24 (PHD-BRD) [1]): 94.2 ± 4.6 nM
- IC50 (His6-TRIM24 (PHD-BRD) [2]): 275 nM
- AlphaScreen signal at plateau relative to baseline (His6-TRIM24 (PHD-BRD) [2]): did not decrease to baseline
- koff (His6-TRIM24 (PHD-BRD) [4]; SPR): 0.061 s⁻¹
- kon (His6-TRIM24 (PHD-BRD) [4]; SPR): 6.1e+06 M⁻¹ s⁻¹
- Kd (His6-TRIM24 (PHD-BRD) [4]; binding saturation, read-out: SPR Kd – equilibrium): 11 ± 2.3 nM
- Kd (His6-TRIM24 (PHD-BRD) [4]; multi-cycle kinetics, read-out: SPR Kd – kinetic): 10 ± 7 nM
Molecule: CCCOc1cccc(Oc2cc3c(cc2NS(=O)(=O)c2cccc(C(=O)NCCOCCOCCOCCOCCNC(C)=O)c2)n(C)c(=O)n3C)c1 [compound 34]

- IC50 (His6-TRIM24 (PHD-BRD) [5]; AlphaScreen® IC50, inhibition of TRIM24-H3K9Me3 (B1) binding by PDCs and controls, mean of triplicate ± SEM): > 400000 nM
- IC50 (His6-TRIM24 (PHD-BRD) [5]; AlphaScreen® IC50, inhibition of TRIM24-H3K9Me3 (B1) binding, mean of triplicate data ± standard error of the mean): > 400000 nM
- IC50 (His6-TRIM24 (PHD-BRD) [1]): > 400000 nM
- IC50 (His6-TRIM24 (PHD-BRD) [2]): > 400000 nM
Molecule: C[C@H](N)C(=O)N[C@@H](CCCNC(=N)N)C(=O)N[C@H](C(=O)N[C@@H](CCCC[N+](C)(C)C)C(=O)N[C@@H](CCC(N)=O)C(=O)N[C@H](C(=O)N[C@@H](C)C(=O)N[C@@H](CCCNC(=N)N)C(=O)N[C@@H](CCCCN)C(=O)N[C@@H](CO)C(=O)N[C@H](C(=O)NCC(=O)NCC(=O)N[C@@H](CCCCN)C(=O)N[C@@H](C)C(=O)O)[C@@H](C)O)[C@@H](C)O)[C@@H](C)O [reference compound]
